# Test results: PubChem BioAssay AID2060619 (Molecular Pharmacology Branch, DTP, NCI, 2025)
# Where “and” joins values, the source holds several entries; their conditions need not be identical. Identical values can stand only once.
# Test system: 323965-272-R-J2-PDC complex spheroid viability
# Test: Anticancer human tumor 323965-272-R-J2-PDC patient-derived pancreatic carcinoma cell line growth inhibition [CLK]
# Details: for viability, T/C: stronger effect = lower value
# In short: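 Multi-cell-type spheroids combined patient-derived tumor cells with HUVEC endothelial cells and human mesenchymal stem cells. Paired agents were dosed in half-log steps down from about clinical Cmax, or from 10 microM where Cmax was unknown.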
# [1] = curve of first compound, second compound 0.0316 µM
# [2] = curve of first compound, second compound 0.1 µM
# [3] = curve of first compound, second compound 0.316 µM
# [4] = curve of first compound, second compound 1 µM
# [5] = curve of first compound, second compound 3.16 µM
# [6] = curve of first compound, second compound 10 µM
# [7] = second compound 0.0316 µM, first compound 0.0316 µM
# [8] = second compound 0.0316 µM, first compound 0.1 µM
# [9] = second compound 0.1 µM, first compound 0.0316 µM
# [10] = second compound 0.1 µM, first compound 0.1 µM
# [11] = second compound 0.316 µM, first compound 0.0316 µM
# [12] = second compound 0.316 µM, first compound 0.1 µM
# [13] = second compound 1 µM, first compound 0.0316 µM
# [14] = second compound 1 µM, first compound 0.1 µM
# [15] = second compound 3.16 µM, first compound 0.0316 µM
# [16] = second compound 3.16 µM, first compound 0.1 µM
# [17] = second compound 10 µM, first compound 0.0316 µM
# [18] = second compound 10 µM, first compound 0.1 µM
# [19] = second compound 0.0316 µM, first compound 0.316 µM
# [20] = second compound 0.0316 µM, first compound 1 µM
# [21] = second compound 0.0316 µM, first compound 3.16 µM
# [22] = second compound 0.0316 µM, first compound 10 µM
# [23] = second compound 0.1 µM, first compound 0.316 µM
# [24] = second compound 0.1 µM, first compound 1 µM
# [25] = second compound 0.1 µM, first compound 3.16 µM
# [26] = second compound 0.1 µM, first compound 10 µM
# [27] = second compound 0.316 µM, first compound 0.316 µM
# [28] = second compound 0.316 µM, first compound 1 µM
# [29] = second compound 0.316 µM, first compound 3.16 µM
# [30] = second compound 0.316 µM, first compound 10 µM
# [31] = second compound 1 µM, first compound 0.316 µM
# [32] = second compound 1 µM, first compound 1 µM
# [33] = second compound 1 µM, first compound 3.16 µM
# [34] = second compound 1 µM, first compound 10 µM
# [35] = second compound 3.16 µM, first compound 0.316 µM
# [36] = second compound 3.16 µM, first compound 1 µM
# [37] = second compound 3.16 µM, first compound 3.16 µM
# [38] = second compound 3.16 µM, first compound 10 µM
# [39] = second compound 10 µM, first compound 0.316 µM
# [40] = second compound 10 µM, first compound 1 µM
# [41] = second compound 10 µM, first compound 3.16 µM
# [42] = second compound 10 µM, first compound 10 µM
# 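Further: spheroids exposed to agents for seven days before readout.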
# 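Wherever viability, T/C is given: percent of DMSO vehicle control wells so 100% = untreated growth.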
smiles,measurement,setting,value
CCc1c2c(nc3ccc(O)cc13)-c1cc3c(c(=O)n1C2)COC(=O)[C@]3(O)CC,"viability, T/C",compound 0.00316 µM,90.2% and 92.5%
same,"viability, T/C",compound 0.01 µM,49.5% and 42.7%
same,"viability, T/C",compound 0.0316 µM,34.2% and 29.5%
same,"viability, T/C",compound 0.1 µM,35.9% and 30.6%
same,"viability, T/C",compound 0.316 µM,26.4% and 30.6%
same,"viability, T/C",compound 1 µM,26.2% and 20.2%
same,IC50,curve of compound,10.2 nM and 8.51 nM
Cn1ncnc1[C@H]1c2n[nH]c(=O)c3cc(F)cc(c23)N[C@@H]1c1ccc(F)cc1 + CN1CCN(c2cc(C(=O)Nc3cc4cc(-c5cnn(C)c5)ccc4cn3)ccn2)CC1,IC50,[1],> 100 nM
same,IC50,[2],> 100 nM
same,IC50,[3],< 0.316 nM
same,IC50,[4],< 0.316 nM
same,IC50,[5],< 0.316 nM
same,IC50,[6],< 0.316 nM
same,"viability, T/C","second compound 0.0316 µM, first compound 0.000316 µM",96.1%
same,"viability, T/C","second compound 0.0316 µM, first compound 0.001 µM",96%
same,"viability, T/C","second compound 0.0316 µM, first compound 0.00316 µM",90%
same,"viability, T/C","second compound 0.0316 µM, first compound 0.01 µM",93.3%
same,"viability, T/C",[7],97%
same,"viability, T/C",[8],68.3%
same,"viability, T/C","second compound 0.1 µM, first compound 0.000316 µM",67.6%
same,"viability, T/C","second compound 0.1 µM, first compound 0.001 µM",65.7%
same,"viability, T/C","second compound 0.1 µM, first compound 0.00316 µM",61.6%
same,"viability, T/C","second compound 0.1 µM, first compound 0.01 µM",74%
same,"viability, T/C",[9],61.1%
same,"viability, T/C",[10],46.1%
same,"viability, T/C","second compound 0.316 µM, first compound 0.000316 µM",23.8%
same,"viability, T/C","second compound 0.316 µM, first compound 0.001 µM",26.9%
same,"viability, T/C","second compound 0.316 µM, first compound 0.00316 µM",23%
same,"viability, T/C","second compound 0.316 µM, first compound 0.01 µM",27.9%
same,"viability, T/C",[11],24.6%
same,"viability, T/C",[12],21.8%
same,"viability, T/C","second compound 1 µM, first compound 0.000316 µM",2.64%
same,"viability, T/C","second compound 1 µM, first compound 0.001 µM",3.21%
same,"viability, T/C","second compound 1 µM, first compound 0.00316 µM",3.5%
same,"viability, T/C","second compound 1 µM, first compound 0.01 µM",2.88%
same,"viability, T/C",[13],5.47%
same,"viability, T/C",[14],3.21%
same,"viability, T/C","second compound 3.16 µM, first compound 0.000316 µM",4.62%
same,"viability, T/C","second compound 3.16 µM, first compound 0.001 µM",3.78%
same,"viability, T/C","second compound 3.16 µM, first compound 0.00316 µM",5.87%
same,"viability, T/C","second compound 3.16 µM, first compound 0.01 µM",3.77%
same,"viability, T/C",[15],4.01%
same,"viability, T/C",[16],4.38%
same,"viability, T/C","second compound 10 µM, first compound 0.000316 µM",4.34%
same,"viability, T/C","second compound 10 µM, first compound 0.001 µM",4.75%
same,"viability, T/C","second compound 10 µM, first compound 0.00316 µM",6.41%
same,"viability, T/C","second compound 10 µM, first compound 0.01 µM",4.13%
same,"viability, T/C",[17],4.28%
same,"viability, T/C",[18],4.85%
COc1cccc2c1C(=O)c1c(O)c3c(c(O)c1C2=O)CC(O)(C(=O)CO)CC3OC1CC(N)C(O)C(C)O1 (stereo not given) + CN1CCN(c2cc(C(=O)Nc3cc4cc(-c5cnn(C)c5)ccc4cn3)ccn2)CC1,IC50,[1],117 nM
same,IC50,[2],< 31.6 nM
same,IC50,[3],< 31.6 nM
same,IC50,[4],< 31.6 nM
same,IC50,[5],< 31.6 nM
same,IC50,[6],< 31.6 nM
same,"viability, T/C",[7],67.8%
same,"viability, T/C",[8],40.7%
same,"viability, T/C",[19],39.4%
same,"viability, T/C",[20],34.8%
same,"viability, T/C",[21],25.3%
same,"viability, T/C",[22],1.54%
same,"viability, T/C",[9],54.4%
same,"viability, T/C",[10],31.6%
same,"viability, T/C",[23],29.3%
same,"viability, T/C",[24],28.2%
same,"viability, T/C",[25],19.1%
same,"viability, T/C",[26],1.41%
same,"viability, T/C",[11],20.3%
same,"viability, T/C",[12],19.8%
same,"viability, T/C",[27],16.1%
same,"viability, T/C",[28],13.1%
same,"viability, T/C",[29],5.8%
same,"viability, T/C",[30],0.68%
same,"viability, T/C",[13],2.27%
same,"viability, T/C",[14],3.05%
same,"viability, T/C",[31],2.16%
same,"viability, T/C",[32],1.22%
same,"viability, T/C",[33],1.2%
same,"viability, T/C",[34],0.38%
same,"viability, T/C",[15],4.1%
same,"viability, T/C",[16],4.05%
same,"viability, T/C",[35],2.98%
same,"viability, T/C",[36],1.5%
same,"viability, T/C",[37],1.35%
same,"viability, T/C",[38],0.43%
same,"viability, T/C",[17],4.15%
same,"viability, T/C",[18],4.78%
same,"viability, T/C",[39],4.17%
same,"viability, T/C",[40],1.38%
same,"viability, T/C",[41],1.47%
same,"viability, T/C",[42],0.19%
CC1COCCN1c1cc(C2(S(C)(=N)=O)CC2)nc(-c2ccnc3[nH]ccc23)n1 (stereo not given) + CNC(=O)c1ccc(Nc2nc(OC3CCCC3)c3c(-c4ccc5nc(C)oc5c4)c[nH]c3n2)c(OC)c1,IC50,[1],2100 nM
same,IC50,[2],1680 nM
same,IC50,[3],1180 nM
same,IC50,[4],< 31.6 nM
same,IC50,[5],< 31.6 nM
same,IC50,[6],< 31.6 nM
same,"viability, T/C",[7],109%
same,"viability, T/C",[8],106%
same,"viability, T/C",[19],90.7%
same,"viability, T/C",[20],70.1%
same,"viability, T/C",[21],38.2%
same,"viability, T/C",[22],25.6%
same,"viability, T/C",[9],94%
same,"viability, T/C",[10],93.8%
same,"viability, T/C",[23],64.2%
same,"viability, T/C",[24],64.2%
same,"viability, T/C",[25],37.8%
same,"viability, T/C",[26],33.9%
same,"viability, T/C",[11],58.5%
same,"viability, T/C",[12],61.5%
same,"viability, T/C",[27],61.2%
same,"viability, T/C",[28],51.1%
same,"viability, T/C",[29],37.4%
same,"viability, T/C",[30],27.7%
same,"viability, T/C",[13],43.4%
same,"viability, T/C",[14],48.9%
same,"viability, T/C",[31],40.7%
same,"viability, T/C",[32],33.8%
same,"viability, T/C",[33],24%
same,"viability, T/C",[34],18.7%
same,"viability, T/C",[15],41.7%
same,"viability, T/C",[16],36.9%
same,"viability, T/C",[35],39.2%
same,"viability, T/C",[36],31.5%
same,"viability, T/C",[37],24.1%
same,"viability, T/C",[38],18.7%
same,"viability, T/C",[17],46.8%
same,"viability, T/C",[18],42.6%
same,"viability, T/C",[39],38.5%
same,"viability, T/C",[40],28.5%
same,"viability, T/C",[41],22%
same,"viability, T/C",[42],16.8%
CC1COCCN1c1cc(C2(S(C)(=N)=O)CC2)nc(-c2ccnc3[nH]ccc23)n1 (stereo not given) + CN1CCN(c2cc(C(=O)Nc3cc4cc(-c5cnn(C)c5)ccc4cn3)ccn2)CC1,IC50,[1],1820 nM
same,IC50,[2],701 nM
same,IC50,[3],< 31.6 nM
same,IC50,[4],< 31.6 nM
same,IC50,[5],< 31.6 nM
same,IC50,[6],< 31.6 nM
same,"viability, T/C",[7],98.2%
same,"viability, T/C",[8],103%
same,"viability, T/C",[19],79.5%
same,"viability, T/C",[20],65.8%
same,"viability, T/C",[21],36.7%
same,"viability, T/C",[22],25.6%
same,"viability, T/C",[9],66.9%
same,"viability, T/C",[10],77.2%
same,"viability, T/C",[23],67%
same,"viability, T/C",[24],41.8%
same,"viability, T/C",[25],31%
same,"viability, T/C",[26],23.6%
same,"viability, T/C",[11],24.6%
same,"viability, T/C",[12],29.2%
same,"viability, T/C",[27],22.1%
same,"viability, T/C",[28],21.4%
same,"viability, T/C",[29],17.4%
same,"viability, T/C",[30],15.1%
same,"viability, T/C",[13],3.95%
same,"viability, T/C",[14],3.37%
same,"viability, T/C",[31],3.9%
same,"viability, T/C",[32],3.84%
same,"viability, T/C",[33],2.35%
same,"viability, T/C",[34],2.79%
same,"viability, T/C",[15],4.84%
same,"viability, T/C",[16],4.43%
same,"viability, T/C",[35],4.15%
same,"viability, T/C",[36],3.73%
same,"viability, T/C",[37],3.53%
same,"viability, T/C",[38],4.26%
same,"viability, T/C",[17],4.2%
same,"viability, T/C",[18],3.8%
same,"viability, T/C",[39],4.37%
same,"viability, T/C",[40],3.26%
same,"viability, T/C",[41],4.39%
same,"viability, T/C",[42],2.79%
